According to article PMC8480759, “Inhibitors of histone deacetylase 6 based on a novel 3-hydroxy-isoxazole zinc binding group” (Journal of Enzyme Inhibition and Medicinal Chemistry, 2021):

Columns and labels:
[1] = system: acetylation levels of histone H3 (HDAC1 target) in DU145 cells; assay: Western blot of histone H3 acetylation in DU145 cells; type: cell-based, human; conditions: 24 h, 10 µM
Experimental: (§1) The results corroborate the inhibitory activity of 17, 23, 25 and 27 at concentrations lower than 10 µM. […] HDACs contribution to CRPC is known[20] and the possibility to arrest CRPC proliferation by acting on HDAC targets is expanding in the scientific literature[21]^,[22]. After administration of the selected compounds for 24 h at 10 µM concentration, the effect on the acetylation levels of histone H3 and α-tubulin (respectively, HDAC1 and HDAC6 targets) was investigated. […] Lastly, in the same cell line, the anti-proliferative effect was measured in dose and time dependent manner (Figure S4).
(§2) Figure S3. Western blotting analysis of the tested and reference compounds SAHA and Tubastatin A on acetylation levels of histone H3 and α-tubulin in DU145 cells. GAPDH and H4 were used as a loading control. Densitometric values were analyzed using ImageJ Software and are reported on the top of bands as the ratio between loading control and acetylated target.
(1 picture or pasted object on this page, not shown here) […]
1.4 Western blot analysis
The prostate cancer cell line DU145 (ATCC) was grown in RPMI medium (Euroclone, Milan, Italy) with 10% fetal bovine serum (Euroclone), 2 mM L-glutamine (Euroclone), and antibiotics (100 U/mL penicillin, […] streptomycin) (Euroclone). Cells were stimulated with drugs for […]
Total Protein Extraction and western blot
After the induction with the test compounds at the indicated times and concentrations, DU145 cells were then harvested, washed with phosphate-buffered saline (PBS) (Euroclone), and lysed for 15 min at 4 °C in lysis extraction buffer with protease and phosphatase inhibitors (50 mM Tris -HCl pH 8.0, 150 mM NaCl, 1% NP40, 10 mM sodium fluoride, 0.1 mM sodium orthovanadate, […] phenylmethylsulfonyl fluoride 58 (PMSF), 20 g/mL aprotinin, […] leupeptin, […] antipain, 10 mM p -nitrophenyl phosphate, […] pepstatin A and 20 nM okada ic acid). Cells were vortexed then centrifuged at 13000 rpm for 30 min at 4 °C. Bradford assay (Biorad, Italy) was used to quantify protein concentration. […] The immune complexes were first detected with horseradish peroxidase-conjugated species-specific secondary antiserum (Bio-Rad Laboratories, Milan, Italy), and then by an enhanced chemiluminescence reaction (Bio-Rad Laboratories, Milan, Italy). […]
were harvested and washed twice with cold 1× PBS and lysed in Triton extraction buffer (TEB; PBS containing 0.5% Triton X 100 (v/v), 2 mM PMSF, and 0.02% (w/v) NaN3) for 10 min on ice, with gentle stirring. […] The samples were then centrifuged at 2000 rpm for 10 min at 4 °C; the concentration of protein in the supernatant was determined […]
using a Bradford assay (Bio-Rad, CA, USA). […] Semi-quantitative analysis was performed using ImageJ software. […]

[2] = system: acetylation levels of α-tubulin (HDAC6 target) in DU145 cells; assay: Western blot of α-tubulin acetylation in DU145 cells; type: cell-based, human; conditions: 24 h, 10 µM
Experimental: as §1
as §2, with “target. […]” for “target.”
The resulting mixtures were incubated at 37 °C for 45min , after which 25 µL of 2X HDAC developer were added. Following incubation at RT for 15 min, fluorescence intensity was measured using a microplate reader (GloMax Discover System, Promega) at 365nm excitation and […] emission wavelengths.
IC50 values were calculated using the GraphPad Prism 6 program based on a log(inhibitor) vs response (variable slope) sigmoidal equation. […]

Structure (SMILES)	effect on acetylation levels of histone H3 [1]	effect on acetylation of α-tubulin [2]
Oc1cc(-c2ccc(NCc3ccccc3)cc2)on1 [Compound 23]	no effect	increased
Oc1cc(-c2ccc3c(c2)OCO3)on1 [Compound 25]	no effect	increased
